Assays:
Assay in all cases: relative viability (nuclei count vs DMSO), 5 days (fraction); higher = more cells survive
[1] = compound: O=c1ncccn1[C@@H]1O[C@H](CO)[C@@H](O)[C@H]1O [Zebularine] + CC(=O)c1c(C)c2cnc(Nc3ccc(N4CCNCC4)cn3)nc2n(C2CCCC2)c1=O [Palbociclib] (partner 0.5 µM)
Summary of the method: (§1)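 A single step with final 0.05% Triton X-100, 1% formaldehyde and 1 ug/ml Hoechst fixed the cells and stained nuclei 5 days after treatment. Lung cancer cell lines in 1536-well plates had been treated by pin tool the day after seeding with one drug alone or a fixed anchor-drug dose plus five library-drug doses (not always all listed) in √10 steps, and nuclei were counted on 4× images. Relative viability is the ratio of nuclei in treated wells to nuclei in vehicle wells, taken as the median of duplicate plates.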

[2] = compound: CC(C)CCN1c2nc(Nc3cc(F)c(O)c(F)c3)ncc2N(C)C(=O)C1C [BI-D1870] + C[C@]1(O)C[C@@H](c2nc(-c3ccc4ccc(-c5ccccc5)nc4c3)c3c(N)nccn32)C1 [Linsitinib] (partner 1 µM)
Summary of the method: as §1

[3] = compound: CC(C)CCN1c2nc(Nc3cc(F)c(O)c(F)c3)ncc2N(C)C(=O)C1C [BI-D1870] + CC(C)C[C@H](NC(=O)[C@H](Cc1ccccc1)NC(=O)c1cnccn1)B(O)O [Bortezomib] (partner 0.002 µM)
Summary of the method: as §1

[4] = compound: O=c1ncccn1[C@@H]1O[C@H](CO)[C@@H](O)[C@H]1O [Zebularine] + Cc1nc(Nc2ncc(C(=O)Nc3c(C)cccc3Cl)s2)cc(N2CCN(CCO)CC2)n1 [Dasatinib] (partner 0.075 µM)
Summary of the method: as §1

Cell Line | relative viability ([1]; first compound 1 µM) | relative viability ([1]; first compound 3.162 µM) | relative viability ([1]; first compound 10 µM) | relative viability ([1]; first compound 31.62 µM) | relative viability ([1]; first compound 100 µM) | relative viability ([2]; first compound 0.04 µM) | relative viability ([2]; first compound 0.1265 µM) | relative viability ([2]; first compound 0.4 µM) | relative viability ([2]; first compound 1.265 µM) | relative viability ([2]; first compound 4 µM) | relative viability ([3]; first compound 0.04 µM) | relative viability ([3]; first compound 0.1265 µM) | relative viability ([3]; first compound 0.4 µM) | relative viability ([3]; first compound 1.265 µM) | relative viability ([3]; first compound 4 µM) | relative viability ([4]; first compound 1 µM) | relative viability ([4]; first compound 3.162 µM) | relative viability ([4]; first compound 10 µM) | relative viability ([4]; first compound 31.62 µM) | relative viability ([4]; first compound 100 µM)
201T | 0.406 | 0.355 | 0.325 | 0.411 | 0.39 | 1.05 | 1.09 | 1.06 | 1.04 | 1.07 | 1.14 | 1.06 | 1.07 | 1.1 | 1.06 | 0.635 | 0.586 | 0.508 | 0.6 | 0.548
A549 |  |  |  |  |  | 0.703 | 0.57 | 0.588 | 0.649 | 0.573 |  |  |  |  |  |  |  |  |  | 
A-427 | 0.581 | 0.542 | 0.472 | 0.385 | 0.296 | 1.14 | 1.1 | 1.13 | 1.17 | 1.17 | 1.08 | 1.01 | 0.936 | 1.08 | 0.968 | 0.841 | 0.664 | 0.434 | 0.535 | 0.2
ABC-1 | 0.741 | 0.485 | 0.635 | 0.589 | 0.471 | 0.857 | 0.835 | 0.718 | 0.946 | 0.782 | 0.306 | 0.353 | 0.232 | 0.298 | 0.244 | 0.637 | 0.352 | 0.454 | 0.435 | 0.351
BEN | 0.451 | 0.473 | 0.451 | 0.422 | 0.368 | 0.956 | 0.859 | 0.914 | 1.01 | 0.961 | 0.897 | 0.793 | 0.971 | 0.979 | 0.663 | 0.32 | 0.303 | 0.253 | 0.223 | 0.146
CAL-12T | 0.474 | 0.423 | 0.409 | 0.557 | 0.353 | 0.935 | 0.559 | 0.749 | 0.79 | 0.704 | 1.15 | 0.907 | 0.932 | 0.895 | 0.635 | 0.462 | 0.623 | 0.238 | 0.451 | 0.414
COR-L23 | 0.314 | 0.286 | 0.176 | 0.224 | 0.146 | 0.896 | 0.927 | 0.92 | 0.996 | 0.536 | 1.28 | 0.844 | 0.979 | 0.926 | 1.03 | 0.616 | 0.442 | 0.373 | 0.239 | 0.211
COR-L 105 | 0.515 | 0.373 | 0.416 | 0.406 | 0.43 | 1.11 | 0.813 | 0.926 | 0.856 | 0.666 | 0.835 | 0.831 | 0.88 | 0.774 | 0.713 | 0.33 | 0.294 | 0.33 | 0.367 | 0.369
Calu-6 |  |  |  |  |  | 1.04 | 0.896 | 0.889 | 0.884 | 0.744 | 0.972 | 0.914 | 1.05 | 0.845 | 0.361 |  |  |  |  | 
ChaGo-K-1 | 0.919 | 0.737 | 0.345 | 0.198 | 0.217 |  |  |  |  |  | 1.03 | 1.05 | 0.608 | 0.942 | 0.933 | 0.619 | 0.557 | 0.312 | 0.269 | 0.183
EBC-1 |  |  |  |  |  | 1.17 | 0.616 | 0.75 | 0.582 | 0.682 | 0.685 | 0.435 | 0.417 | 0.323 | 0.123 |  |  |  |  | 
EKVX | 0.692 | 0.398 |  | 0.343 | 0.413 | 1.14 | 0.933 | 1 | 1.05 | 0.893 | 1.14 | 1.1 | 0.938 | 1.15 | 1.05 | 0.577 | 0.498 |  | 0.575 | 0.573
EMC-BAC-2 | 0.545 | 0.507 | 0.431 | 0.6 | 0.539 | 0.864 | 0.748 | 0.792 | 0.802 | 0.799 | 1.18 | 0.964 | 1.02 | 1.09 | 1.05 | 0.349 | 0.367 | 0.268 | 0.318 | 0.311
EPLC-272H | 0.375 |  | 0.326 | 0.324 | 0.344 | 1.22 | 1.15 | 1.34 | 1.22 | 1.14 | 0.887 | 0.99 | 1.01 | 1.1 | 0.772 | 0.405 | 0.356 | 0.255 | 0.34 | 0.28
H3255 | 0.3 | 0.288 | 0.336 | 0.314 | 0.321 | 0.94 | 0.959 | 0.935 | 1.1 | 0.907 | 0.67 | 0.779 | 0.769 | 0.969 | 0.748 | 0.402 | 0.365 | 0.324 | 0.409 | 0.368
HARA | 0.242 | 0.279 |  | 0.292 | 0.235 | 1.1 | 0.897 | 1.03 | 1.09 | 0.873 | 1.03 | 1.03 | 1.22 | 1.18 | 0.943 | 0.219 |  |  | 0.35 | 0.274
HCC-15 | 0.887 | 0.757 | 0.521 | 0.506 | 0.3 | 0.89 | 0.751 | 0.772 | 0.92 | 0.713 | 1.03 | 1.01 | 0.922 | 1.04 | 0.863 | 0.759 | 0.577 | 0.494 | 0.486 | 0.27
HCC-44 | 0.945 | 0.998 | 1.07 | 1.16 | 0.5 | 0.718 | 0.667 | 0.679 | 0.712 | 0.634 | 1.08 | 0.965 | 0.909 | 0.941 | 0.99 |  |  |  |  | 
HCC-78 | 0.577 | 0.465 | 0.34 | 0.472 | 0.449 | 0.54 | 0.547 | 0.492 | 0.533 | 0.406 | 0.545 | 0.402 | 0.492 | 0.56 | 0.42 | 0.385 | 0.428 | 0.22 | 0.37 | 0.278

— the supplement of paper PMC10307832
